Experimental data as given in paper PMC9403717, “Ruthenium complexes show potent inhibition of AKR1C1, AKR1C2, and AKR1C3 enzymes and anti-proliferative action against chemoresistant ovarian cancer cell line” (Frontiers in Pharmacology, 2022).
“And” between values parts separate entries of the source, which are not always exact repeats. Equal entries are not always repeated.

Test system: COV362 cells
Test: Cell proliferation assay (alamarBlue), chemoresistant ovarian cancer cell line COV362
Assay type: cell-based, human
Details: for IC50: 48 h incubation
Procedure: The cell line COV362 (CVCL_2,420) was originally established from a high-grade ovarian serous adenocarcinoma from a metastatic site in the pleural effusion ([van den Berg-Bakker et al., 1993]) and was purchased from ECACC (ECACC 07071910) as p37 on 13 October 2017. The growth medium for COV362 cells was DMEM (D5546; Sigma–Aldrich GmbH), with 10% FBS (F9665; Sigma–Aldrich GmbH) and 2 mM L-glutamine (G7513; Sigma–Aldrich GmbH). COV362 cells in passages p37 + 12 to p37 + 17 were used in this study and seeded at a concentration of 3.5 cells/ml × 10^4 cells/ml for proliferation studies and at a concentration of 5.3 × 10^5/ml for migration studies. The cell line OVCAR-4 (CVCL_1,627) is a high-grade serous ovarian adenocarcinoma cell line established from a patient refractory to cisplatin ([Johnson et al., 1997]). The cell line was purchased from Merck on 19 March 2021. The growth medium for OVCAR-4 cells was RPMI-1640 (Sigma R5586) supplemented with 2 mM glutamine (G7513; Sigma–Aldrich GmbH), 10% FBS (F9665; Sigma–Aldrich GmbH), 0.25 μg/ml insulin (I9278; Sigma–Aldrich GmbH). OVCAR-4 cells in passages p+6 to p+15 were used in this study and seeded at a concentration of 6 cells/ml × 10^4 cells/ml. The control cell line HIO80 (CVCL_E274) was obtained from Andrew K. Godwin (University of Kansas Medical Center, Kansas, United States) on 20 October 2017 as p+72. It was originally established from ovarian surface epithelium ([Yang et al., 2004]). HIO80 cells were grown in RPMI medium (R5886, Sigma–Aldrich GmbH) supplemented with 10% FBS (F9665; Sigma–Aldrich GmbH), 2 mm L-glutamine (G7513; Sigma–Aldrich GmbH) and 6.6 µg/ml insulin (I9278; Sigma–Aldrich GmbH). HIO80 cells in passages p72 + 8 to p72 + 19 were used in this study and seeded at a concentration of 2 × 10^4 cells/mL. HIO80 in passage +10 was authenticated by short tandem repeats (STR) profiling performed by ATCC on 22 February 2019. Cells were grown in a humidified atmosphere containing 5% CO2 at 37°C. All cell lines were negative for mycoplasma infection which was periodically tested using MycoAlert^TM mycoplasma detection kit (Lonza, Basel, Switzerland).
The effect of ruthenium compounds on the proliferation of ovarian cancer cell lines COV362 and OVCAR-4 and the control cell line HIO80 was analyzed using the cell proliferation reagent alamarBlue HS (A50101; Thermo Fisher Scientific) following the manufacturer’s instructions.
Cells were seeded in 96-well plates in 100 µL of medium and allowed to adhere and grow for 24 h. […] Cisplatin and carboplatin purchased from Sigma–Aldrich GmbH (cat. number: PHR1624, lot: LRAB7778) and (cat. number: C2538, lot: MKCK1243) were dissolved in sterile water. Working solutions were prepared by a serial dilution of stock solutions with a culture medium. After the initial incubation, cells were treated with ruthenium complexes, cisplatin, and carboplatin. A range of final concentrations between 0.001 and 300 µM were used for ruthenium complexes and cisplatin, and between 0.001 µM and 1 mM for carboplatin. After 48 h of incubation, plates were incubated with 20 µL of alamarBlue. After 4 h absorbance was measured with a BioTek microplate spectrophotometer at 570 nm, with the reference wavelength set at 600 nm. First, the background value of a well containing the active substance without cells was subtracted, then the average values for duplicates/triplicates were calculated. The absorbance of the well containing only untreated cells was used as a normalization control. The half-maximal […] concentration (IC50) was determined for all ruthenium complexes with a growth-inhibiting effect on cells by constructing a dose-response curve (Graph Pad Prism, Version 8.0).

SMILES	IC50	effect on proliferation (in words)
Cc1ccc(C(C)C)cc1.O=C(C=C([O][Ru][Cl])c1ccc(I)cc1)C(F)(F)F [Compound 1]	96.6 µM	
C1N2CN3CN1CP(C2)C3.Cc1ccc(C(C)C)cc1.F[P-](F)(F)(F)(F)F.O=C(C=C([O][Ru+])c1ccc(I)cc1)C(F)(F)F [Compound 2]	141 µM	
CN(C)c1ccc(C(=CC(=O)C(F)(F)F)[O][Ru][Cl])cc1.Cc1ccc(C(C)C)cc1 [Compound 3, (η^6-p-cymene)chlorido(4,4,4-trifluoro-1-(4-(dimethylamino)phenyl)-1,3-butandionato)ruthenium(II)]	< 100 µM and 90.2 µM	
Cc1ccc(C(C)C)cc1.O=C(C=C([O][Ru][Cl])c1ccc2c(c1)OCO2)C(F)(F)F [Compound 5]	136 µM	
C1N2CN3CN1CP(C2)C3.Cc1ccc(C(C)C)cc1.F[P-](F)(F)(F)(F)F.O=C(C=C([O][Ru+])c1ccc2c(c1)OCO2)C(F)(F)F [Compound 6]	152 µM	
Cc1ccc(C(C)C)cc1.[Cl-].[O-]c1c(I)cc(Cl)c2cccnc12.[Ru+2] [Compound 7]	17.7 µM	
C1N2CN3CN1CP(C2)C3.Cc1ccc(C(C)C)cc1.F[P-](F)(F)(F)(F)F.[O-]c1c(I)cc(Cl)c2cccnc12.[Ru+2] [Compound 8]	38 µM	
Cc1ccc(C(C)C)cc1.O=[N+]([O-])c1ccc([O][Ru][Cl])c2ncccc12 [Compound 9, (η ^6-p-Cymene) (nitroxolinato)chloridoruthenium (II)]	21.5 µM	
C1N2CN3CN1CP(C2)C3.Cc1ccc(C(C)C)cc1.F[P-](F)(F)(F)(F)F.O=[N+]([O-])c1ccc([O][Ru+])c2ncccc12 [Compound 10, (η ^6-p-cymene)(nitroxolinato)(pta)ruthenium(II) hexafluorophosphate]	> 200 µM	inactive
